Read-outs that look alike come from different tables or passages of the source.
Assays:
[1] = biological target: T1, DCAF15 (DDA1-DDB1ΔB-DCAF15Δpro) (Homo sapiens, UniProt Q66K64, DEL276-383); test: DCAF15 displacement assay (displacement FRET, probe PT7795); format: binding; settings: displacement of PT7795 (300 nM), compound 0.01 to 100 μM, 18 hours incubation; read-out: DCAF15 displacement IC50
T1 construct: made in house; host or cells: Sf9 (Bac-to-Bac baculovirus)
From the text: (§1) Proteins used for the assays were as follows: Human DDA1 (UniProt:Q9BW61), DDB1 (UniPro: Q16531), and DCAF15 (UniProt: Q66K64) coding sequences were cloned into pFastBac1 vectors and were co-expressed in Sf9 cells using Bac-to-Bac baculovirus expression system (Thermo Fisher Scientific). The expression construct for DCAF15 includes a N-terminal His6-tag to facilitate the purification.
DCAF15 Displacement Assay (Displacement FRET KD)
Synthesis of the probe PT7795 is described in the article.
Binding of PT7795 to DDA1-DDB1AB-DCAF15Δpro was measured by the FRET signal between europium-labeled anti-His antibody (AD0205, Perkin Elmer) that is associated with His-tagged DCAF15 and ALX647 moiety in PT7795. […] After equilibrating for 2-3 hours at 4° C., the plate was removed from the incubator, briefly spun, then read on a Spark 10 (Tecan) at the excitation/emission wavelength of 340 nm/615 nm and 340 nm/665 nm.
Binding of compounds in this disclosure to DCAF15 was measured in a competition by the displacement of PT7795. The concentration of PT7795 was kept at 300 nM while the concentration of a compound was varied from 0.01 to 100 μM. The incubation time was increased to 18 hours for enhanced signal to noise level.
F=Fmin+(Fmax−Fmin)/(1+10^(logIC50−log[Compound])^n) (Equation 2)
The Kds can then be calculated from IC50s using Equation 3 (Cheng-Prusoff equation).

[2] = test system: HCT116 human colorectal carcinoma cells; test: CellTiter-Glo assay (cell viability); format: cell-based; settings: HCT-116, 72 h, read-out: CTG IC50
Protocol: HCT116 human colorectal carcinoma cells were used in these experiments. HCT116 cells were obtained from ATCC. CellTiter-Glo® Luminescent Cell Viability Assay Reagent was obtained from Promega.
About 3,000 cells were seeded into 96-well plate with 100 μL of media (DMEM supplemented with 10% FBS, 100 units penicillin, and […] streptomycin per mL) the day before the experiment. For compound treatment, the master plate was prepared as follows: 100× compound stocks were prepared in a 96-well plate by 1 to 3 serial dilutions of 0.5 mM DMSO stocks. Each master plate contained serial dilution of 8 compounds, including the control compound E7820. […] of 100× compound stock was added to each well of the assay plate to give final concentrations of […]. Each concentration was tested in triplicate. After 3 days, cell viability was determined using CellTiter-Glo Luminescent Cell Viability Assay Reagent following the manufacturer's recommended protocol. Briefly, […] of CellTiter-Glo reagent was added to each well of the assay plate and the contents were mixed for 3 minutes at 600 rpm on a shaker (Thermomixer R). The plate was immediately placed in a plate reader (Synergy 2) and the luminescence signal (0.5 second per well integration time) was determined. IC50 values were calculated using Dotmatics software.

[3] = biological target: T2, DCAF15 RBM39 ternary complex (Homo sapiens, UniProt Q14498+Q66K64, DEL276-383); test: DCAF15 RBM39 complex formation assay (FRET); format: biochemical; settings: FRET ratio, 20 nM DDB1DB/DCAF15, 50 nM RBM39 R1R2, overnight at 4° C.; read-out: DCAF15 RBM39 ternary complex EC50
T2 construct: Amino acids 150 to 331 of RBM39 were cloned into pGEX4T3; GST (from the pGEX4T3 vector, own knowledge) followed by a TEV cleavage site (N); made in house; host or cells: Sf9 baculovirus (DDB1ΔB/DCAF15); E. coli (RBM39 R1R2)
T2 sequence (Q66K64 with tags, fused parts or gaps DEL276-383): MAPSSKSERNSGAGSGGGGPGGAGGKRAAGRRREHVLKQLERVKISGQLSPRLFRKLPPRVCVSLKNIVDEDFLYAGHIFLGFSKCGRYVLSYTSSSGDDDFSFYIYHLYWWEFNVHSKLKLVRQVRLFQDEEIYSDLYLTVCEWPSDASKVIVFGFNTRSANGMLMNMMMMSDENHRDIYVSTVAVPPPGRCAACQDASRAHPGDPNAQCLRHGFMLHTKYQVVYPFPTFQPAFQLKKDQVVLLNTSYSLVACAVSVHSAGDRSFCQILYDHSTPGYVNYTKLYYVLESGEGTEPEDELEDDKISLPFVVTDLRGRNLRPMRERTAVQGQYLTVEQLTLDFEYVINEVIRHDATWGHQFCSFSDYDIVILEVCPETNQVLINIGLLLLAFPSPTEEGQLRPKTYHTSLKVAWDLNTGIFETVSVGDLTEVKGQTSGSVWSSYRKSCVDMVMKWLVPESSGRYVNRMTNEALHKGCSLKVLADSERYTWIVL
T2 sequence (Q14498 150-331, stated change not applied): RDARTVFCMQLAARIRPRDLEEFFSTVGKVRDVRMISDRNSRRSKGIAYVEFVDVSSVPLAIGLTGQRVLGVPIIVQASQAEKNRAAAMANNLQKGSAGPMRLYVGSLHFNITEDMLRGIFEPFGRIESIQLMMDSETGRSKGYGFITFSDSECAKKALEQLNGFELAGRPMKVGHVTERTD
From the text: as §1
DCAF15 RBM39 Complex Formation Assay
LANCE Eu-W1024 Anti-6×His and SureLight Allophycocyanin-anti-FLAG antibodies were purchased from Perkin Elmer. Human DDB1DB and His-tagged DCAF15 were co-expressed in baculovirus/sf9 system. […] The His-tagged DCAF15 contains six histidine residues directly preceding the DCAF15 sequence without any linker. An RBM39 fragment containing RRM1 and RRM2 was expressed in E. coli.
A compound of the present disclosure in DMSO (2 μL) was transferred to a 384-well assay plate. Compound was added in 14 points, 3-fold serial dilution (1 μM to 0.6 pico molar) in DMSO. […] FRET assay buffer (25 mM HEPES, pH 7.5, 100 mM NaCl, […], 0.5 mM TCEP, 0.005% Tween-20, 0.2 nM Eu-W1024 Anti-6×His, 50 nM SureLight Allophycocyanin-anti-FLAG, 20 nM DDB1DB/DCAF15, 50 nM RBM39 R1R2) was added and the resulting solution was incubated overnight at 4° C. […] Low signal controls containing no compound and high signal controls containing 10 mM indisulam were measured for each plate.
EC50 values were calculated using Dotmatics template equation for 4-parameter fit.
Results are expressed as % formation using the following equation: […]

[4] = HCT116 cells, 3 days, CellTiter-Glo luminescence

SMILES | IC50 [1] | IC50 [2, 4] | EC50 [3] | IC50 [2]
O=S1(=O)Nc2c(cc(Cl)c3c(Cl)c[nH]c23)CN1Cc1ccncc1 [Compound 20, 6,7-dichloro-3-(pyridin-4-ylmethyl)-1,3,4,9-tetrahydro-[1,2,6] thiadiazino[4,3-g] indole 2,2-dioxide] | 1070 nM | 155 nM | 0.7 nM | –
COc1ccc(CN2Cc3cc(Cl)c4c(Cl)c[nH]c4c3NS2(=O)=O)cn1 [Compound 21, 6,7-dichloro-3-((6-methoxypyridin-3-yl)methyl)-1,3,4,9-tetrahydro-[1,2,6]thiadiazino [4,3-g]indole 2,2-dioxide] | 560 nM | 415 nM | 1.5 nM | –
CC(c1ccccc1)N1Cc2cc(Cl)c3c(Cl)c[nH]c3c2NS1(=O)=O (stereo not drawn) [Compound 23, 6,7-dichloro-3-(1-phenylethyl)-1,3,4,9-tetrahydro-[1,2,6] thiadiazino[4,3-g] indole 2,2-dioxide] | 9590 nM | 591 nM | 2.8 nM | –
O=S1(=O)Nc2c(cc(Cl)c3c(Cl)c[nH]c23)CN1CCO [Compound 24, 6,7-dichloro-3-(2-hydroxyethyl)-1,3,4,9-tetrahydro-[1,2,6] thiadiazino[4,3-g]indole 2,2-dioxide] | 8300 nM | 799 nM | 3.9 nM | –
O=S1(=O)Nc2c(cc(Cl)c3c(Cl)c[nH]c23)CN1CCCC(F)(F)C(F)(F)F [Compound 25, 6,7-dichloro-3-(4,4,5,5,5-pentafluoropentyl)-1,3,4,9-tetrahydro-[1,2,6] thiadiazino[4,3-g]indole 2,2-dioxide] | 52200 nM | 992 nM | 3.4 nM | –
O=S1(=O)Nc2c(cc(Cl)c3c(Cl)c[nH]c23)CN1Cc1cccnc1 [Compound 26, 6,7-dichloro-3-(pyridin-3-ylmethyl)-1,3,4,9-tetrahydro-[1,2,6] thiadiazino[4,3-g] indole 2,2-dioxide] | 507 nM | 130 nM | 1.2 nM | –
O=S1(=O)Nc2c(cc(Cl)c3c(Cl)c[nH]c23)CN1Cc1cccnc1Cl [Compound 27, 6,7-dichloro-3-((2-chloropyridin-3-yl)methyl)-1,3,4,9-tetrahydro-[1,2,6]thiadiazino [4,3-g]indole 2,2-dioxide] | 647 nM | 140 nM | 0.8 nM | –
CNCCN1Cc2cc(Cl)c3c(Cl)c[nH]c3c2NS1(=O)=O [Compound 28, 6,7-dichloro-3-(2-(methylamino)ethyl)-1,3,4,9-tetrahydro-[1,2,6] thiadiazino[4,3-g]indole 2,2-dioxide] | 28000 nM | 501 nM | 1.4 nM | –
O=S1(=O)NCc2nc(Cl)c3c(Cl)c[nH]c3c2N1 [Compound 31, 6,7-dichloro-1,3,4,9-tetrahydropyrrolo[2′,3′:4,5]pyrido[3,2-c][1,2,6]thiadiazine 2,2-dioxide] | ≥ 100000 nM | 4510 nM | 263 nM | –
O=S1(=O)Nc2c(cc(Cl)c3c(Cl)c[nH]c23)CN1CCCC(F)(F)F [Compound 32, 6,7-dichloro-3-(4,4,4-trifluorobutyl)-1,3,4,9-tetrahydro-[1,2,6] thiadiazino[4,3-g]indole 2,2-dioxide] | 4120 nM | 269 nM | 1.9 nM | –
O=S1(=O)Nc2c(cc(Cl)c3c(Cl)c[nH]c23)CN1Cc1cncnc1 [Compound 33, 6,7-dichloro-3-(pyrimidin-5-ylmethyl)-1,3,4,9-tetrahydro-[1,2,6]thiadiazino[4,3-g] indole 2,2-dioxide] | 530 nM | 162 nM | 2.3 nM | –
O=S1(=O)Nc2c(cc(Cl)c3c(Cl)c[nH]c23)CN1CC1COC1 [Compound 34, 6,7-dichloro-3-(oxetan-3-ylmethyl)-1,3,4,9-tetrahydro-[1,2,6]thiadiazino[4,3-g]indole 2,2-dioxide] | 689 nM | – | 1.8 nM | 126 nM
O=S1(=O)Nc2c(cc(Cl)c3c(Cl)c[nH]c23)CN1Cc1ccncc1Cl [Compound 35, 6,7-dichloro-3-((3-chloropyridin-4-yl)methyl)-1,3,4,9-tetrahydro-[1,2,6]thiadiazino [4,3-g]indole 2,2-dioxide] | 210 nM | 118 nM | 4 nM | –

Second part, led by results:

IC50 [1] | IC50 [2, 4] | EC50 [3] | SMILES | IC50 [2]
963 nM | 236 nM | 2.1 nM | Cc1nnc(CN2Cc3cc(Cl)c4c(Cl)c[nH]c4c3NS2(=O)=O)o1 [Compound 36, 6,7-dichloro-3-((5-methyl-1,3,4-oxadiazol-2-yl)methyl)-1,3,4,9-tetrahydro-[1,2,6] thiadiazino[4,3-g]indole 2,2-dioxide] | –
2000 nM | 568 nM | 2.5 nM | Cn1cnc(CN2Cc3cc(Cl)c4c(Cl)c[nH]c4c3NS2(=O)=O)n1 [Compound 37, 6,7-dichloro-3-((1-methyl-1H-1,2,4-triazol-3-yl)methyl)-1,3,4,9-tetrahydro-[1,2,6] thiadiazino[4,3-g]indole 2,2-dioxide] | –
458 nM | 262 nM | 1.3 nM | Cn1ncnc1CN1Cc2cc(Cl)c3c(Cl)c[nH]c3c2NS1(=O)=O [Compound 38, 6,7-dichloro-3-((1-methyl-1H-1,2,4-triazol-5-yl)methyl)-1,3,4,9-tetrahydro-[1,2,6] thiadiazino[4,3-g]indole 2,2-dioxide] | –
285 nM | 4990 nM | 1.2 nM | O=S1(=O)Nc2c(cc(Cl)c3c(Cl)c[nH]c23)CN1CC1CCNCC1 [Compound 39, 6,7-dichloro-3-(piperidin-4-ylmethyl)-1,3,4,9-tetrahydro-[1,2,6]thiadiazino[4,3-g]indole 2,2-dioxide] | –
1560 nM | 537 nM | 1.6 nM | CC(=O)NCCN1Cc2cc(Cl)c3c(Cl)c[nH]c3c2NS1(=O)=O [Compound 40, N-(2-(6,7-dichloro-2,2-dioxido-4,9-dihydro-[1,2,6]thiadiazino[4,3-g]indol-3(1H)-yl)ethyl) acetamide] | –
17500 nM | 183 nM | 10.6 nM | CN(C)CCN1Cc2cc(Cl)c3c(Cl)c[nH]c3c2NS1(=O)=O [Compound 41, 6,7-dichloro-3-(2-(dimethylamino)ethyl)-1,3,4,9-tetrahydro-[1,2,6] thiadiazino[4,3-g]indole 2,2-dioxide] | –
588 nM | 298 nM | 0.7 nM | O=S1(=O)Nc2c(cc(Cl)c3c(Cl)c[nH]c23)CN1Cc1cccnn1 [Compound 42, 6,7-dichloro-3-(pyridazin-3-ylmethyl)-1,3,4,9-tetrahydro-[1,2,6]thiadiazino[4,3-g]indole 2,2-dioxide] | –

— patent US20240294548A1, “TRICYCLIC SULTAMS AND SULFAMIDES AS ANTITUMOR AGENTS” (PELOTON THERAPEUTICS INC., priority 2021, published 2024)
